Measured values from patent US10851065B2 (Eisai R&D Management Co., Ltd., priority 2015, dated 2020).

Experiments:
[1] = tested on: MCF7-WT cells (MCF7 ER-alpha wildtype); experiment: In vitro proliferation (viability) assay, CellTiter-Glo, MCF7-WT cells; assay type: cell-based; details: Homo sapiens; MCF7-WT cells, 6 days, CTG vs day 0; mean ± SD-type spread (n); read-out: GI50 WT
Experimental: (§1) MCF7 BUS cells (Coser, et al., (2003) PNAS 100(24): 13994-13999) were maintained in Dulbecco's Modified Eagle Medium supplemented with 10% FBS, 4 mM L-glutamine and 1× non-essential amino acids. Lenti-X 293T cells (Clontech, Cat #632180) were routinely cultured in Dulbecco's Modified Eagle Medium supplemented with 10% FBS.
(§2) The QuikChange II XL Site-Directed Mutagenesis Kit (Agilent Technologies, Cat #200523) was used to generate Y537S, Y537C, Y537N and D538G mutations within the ERα exon 8. Wild-type ESR1 cDNA (GeneCopoeia Inc., Cat #GC-A0322, accession no. NM 000125) was used as a template with the following mutagenesis primers (where the underlined nucleotides represent site mutations); Y537S: F-AAGAACGTGGTGCCCCTCTCTGACCTGCTGCTGGAGATG (SEQ ID NO: 1), R-CATCTCCAGCAGCAGGTCAGAGAGGGGCACCACGTTCTT (SEQ ID NO: 2); Y537N: F-AAGAACGTGGTGCCCCTCAATGACCTGCTGCTGGAGATG (SEQ ID NO: 3), R-CATCTCCAGCAGCAGGTCATTGAGGGGCACCACGTTCTT (SEQ ID NO: 4); Y537C: F-AAGAACGTGGTGCCCCTCTGTGACCTGCTGCTGGAGATG (SEQ ID NO: 5), R-CATCTCCAGCAGCAGGTCACAGAGGGGCACCACGTTCTT (SEQ ID NO: 6); D538G: F-AACGTGGTGCCCCTCTATGGCCTGCTGCTGGAGATGCTG (SEQ ID NO: 7), R-CAGCATCTCCAGCAGCAGGCCATAGAGGGGCACCACGTT (SEQ ID NO: 8). WT and mutant ESR1 cDNAs were cloned into the designation lentiviral vector pLenti6.3/V5-Dest (Invitrogen, Cat #V533-06). To make lentivirus, DNAs (WT and mutant ESR1) were co-transfected with packaging plasmids into Lenti-X 293T cells using TransIT (Mirus, Cat #MIR 2700). 48 h post-transfection, virus containing media was filtered and added to MCF7 cells in the presence of 8 µg/ml polybrene overnight. Two days following infection, cells were placed under selection with 10 μg/ml blasticidin for 2 weeks for stable expression.
(§3) MCF7-WT and -Y537S cells were seeded at 1500 cells/well in black-walled 96-well plates (assay plates, Costar, Cat #3904). In parallel, cells were also seeded in a separate 96-well plate (8 wells/cell line, control plate) for which a CTG (CellTiter-Glo® Luminescent Viability Assay, Promega, Cat #G7572) was measured the following day (day 0 reading). The day 0 reading was used for the GI50 calculation at the termination of the experiment. The day following seeding, compounds were added to assay plates. Briefly, a 1:4 serial dilution was prepared in DMSO at 200× final concentration for a total of 10 concentrations (9 dilutions containing compound and one is DMSO only). Serially diluted compounds were pipetted into medium to prepare a compound-medium mix at 10× final concentration. 10 μl of compound-medium mix was added to MCF7-WT and -Y537S cells at 3 wells/concentration (triplicate for each concentration). On day 3, media/compound was removed and replaced with fresh media/compound as described above. On day 6, CTG was measured and compared to day 0 readings from control plate to assess GI50.

[2] = tested on: MCF7-Y537S cells (MCF7 ER-alpha Y537S mutant); experiment: In vitro proliferation (viability) assay, CellTiter-Glo, MCF7-Y537S cells; assay type: cell-based; details: Homo sapiens; MCF7-Y537S cells, 6 days, CTG vs day 0; mean ± SD-type spread (n); read-out: GI50 MUT (Y537S)
Experimental: as §1, §2, §3

| SMILES | GI50 [1] [µM] | GI50 [2] [µM] |
| --- | --- | --- |
| CC/C(=C(/c1ccc(OCCNC/C=C/C(=O)N(C)C)cc1)c1ccc2[nH]nc(F)c2c1)c1ccccc1 [Compound 2, (E)-4-((2-(4-((E)-1-(3-fluoro-1H-indazol-5-yl)-2-phenylbut-1-en-1-yl)phenoxy)ethyl)amino)-N,N-dimethylbut-2-enamide] | 0.00556 ± 0.00284 | 0.0648 ± 0.0372 |
| CC/C(=C(/c1ccc(OCCNC/C=C/C(=O)N(C)C)cc1)c1ccc2[nH]nc(F)c2c1)c1cc(F)cc(C(F)(F)F)c1 [Compound 3, (E)-4-((2-(4-((E)-1-(3-fluoro-1H-indazol-5-yl)-2-(3-fluoro-5-(trifluoromethyl)phenyl)but-1-en-1-yl)phenoxy)ethyl)amino)-N,N-dimethylbut-2-enamide] | 0.00695 ± 0.00247 | 0.159 ± 0.0918 |
| CC/C(=C(/c1ccc(OCCNC/C=C/C(=O)N(C)C)cc1)c1ccc2[nH]ncc2c1F)c1ccccc1 [Compound 4, (E)-4-((2-(4-((E)-1-(4-fluoro-1H-indazol-5-yl)-2-phenylbut-1-en-1-yl)phenoxy)ethyl)amino)-N,N-dimethylbut-2-enamide] | 0.00455 ± 0.00334 | 0.0363 ± 0.016 |
| CC/C(=C(/c1ccc(OCCNC/C=C/C(=O)N(C)C)cc1)c1ccc2[nH]ncc2c1)c1cc(F)cc(F)c1 [Compound 5, (E)-4-((2-(4-((E)-2-(3,5-difluorophenyl)-1-(1H-indazol-5-yl)but-1-en-1-yl)phenoxy)ethyl)amino)-N,N-dimethylbut-2-enamide] | 0.00844 ± 0.00387 | 0.0814 ± 0.0457 |
| CC/C(=C(/c1ccc(OCCNC/C=C/C(=O)N(C)C)cc1)c1ccc2[nH]ncc2c1)c1ccc(F)c(F)c1 [Compound 6, (E)-4-((2-(4-((E)-2-(3,4-difluorophenyl)-1-(1H-indazol-5-yl)but-1-en-1-yl)phenoxy)ethyl)amino)-N,N-dimethylbut-2-enamide] | 0.00293 ± 0.00283 | 0.111 ± 0.124 |
| CC/C(=C(/c1ccc(OCCNC/C=C/C(=O)N(C)C)cc1)c1ccc2[nH]ncc2c1)c1cc(F)cc(Cl)c1 [Compound 7, (E)-4-((2-(4-((E)-2-(3-chloro-5-fluorophenyl)-1-(1H-indazol-5-yl)but-1-en-1-yl)phenoxy)ethyl)amino)-N,N-dimethylbut-2-enamide] | 0.00192 | 0.0741 ± 0.0552 |
| C#CCN(C)C(=O)/C=C/CNCCOc1ccc(/C(=C(/CC)c2ccccc2)c2ccc3[nH]ncc3c2)cc1 [Compound 8, (E)-4-((2-(4-((E)-1-(1H-indazol-5-yl)-2-phenylbut-1-en-1-yl)phenoxy)ethyl)amino)-N-methyl-N-(prop-2-yn-1-yl)but-2-enamide] | 0.00159 | 0.0223 |
| C#CCCN(C)C(=O)/C=C/CNCCOc1ccc(/C(=C(/CC)c2ccccc2)c2ccc3[nH]ncc3c2)cc1 [Compound 9, (E)-4-((2-(4-((E)-1-(1H-indazol-5-yl)-2-phenylbut-1-en-1-yl)phenoxy)ethyl)amino)-N-(but-3-yn-1-yl)-N-methylbut-2-enamide] | 0.00557 | 0.118 |
| CC/C(=C(/c1ccc(OCCNC/C=C/C(=O)N2CCC2)cc1)c1ccc2[nH]ncc2c1)c1ccccc1 [Compound 10, (E)-4-((2-(4-((E)-1-(1H-indazol-5-yl)-2-phenylbut-1-en-1-yl)phenoxy)ethyl)amino)-1-(azetidin-1-yl)but-2-en-1-one] | 0.00222 ± 0.00234 | 0.0212 ± 0.0172 |
| CC/C(=C(/c1ccc(OCCNC/C=C/C(=O)N2CCCC2)cc1)c1ccc2[nH]ncc2c1)c1ccccc1 [Compound 11, (E)-4-((2-(4-((E)-1-(1H-indazol-5-yl)-2-phenylbut-1-en-1-yl)phenoxy)ethyl)amino)-1-(pyrrolidin-1-yl)but-2-en-1-one] | 0.00076 | 0.014 |
| CC/C(=C(/c1ccc(OCCNC/C=C/C(=O)N2CCCCC2)cc1)c1ccc2[nH]ncc2c1)c1ccccc1 [Compound 12, (E)-4-((2-(4-((E)-1-(1H-indazol-5-yl)-2-phenylbut-1-en-1-yl)phenoxy)ethyl)amino)-1-(piperidin-1-yl)but-2-en-1-one] | 0.00169 | 0.0367 |
| CN(C)C(=O)/C=C/CNCCOc1ccc(/C(=C(\c2ccccc2)C2CCC2)c2ccc3[nH]ncc3c2)cc1 [Compound 13, (E)-4-((2-(4-((E)-2-cyclobutyl-1-(1H-indazol-5-yl)-2-phenylvinyl)phenoxy)ethyl)amino)-N,N-dimethylbut-2-enamide] | 0.00208 ± 0.00157 | 0.02 ± 0.0137 |
| CN(C)C(=O)/C=C/CNCCOc1ccc(/C(=C(\c2ccccc2)C2CCC2)c2ccc3[nH]nc(F)c3c2)cc1 [Compound 14, (E)-4-((2-(4-((E)-2-cyclobutyl-1-(3-fluoro-1H-indazol-5-yl)-2-phenylvinyl)phenoxy)ethyl)amino)-N,N-dimethylbut-2-enamide 2,2,2-trifluoro acetate] | 0.00246 ± 0.00143 | 0.0307 ± 0.00402 |
| CC/C(=C(/c1ccc(OCCNC/C=C/C(=O)N2CCOCC2)cc1)c1ccc2[nH]ncc2c1)c1ccccc1 [Compound 15, (E)-4-((2-(4-((E)-1-(1H-indazol-5-yl)-2-phenylbut-1-en-1-yl)phenoxy)ethyl)amino)-1-morpholinobut-2-en-1-one] | 0.00184 ± 0.00109 | 0.0255 ± 0.0138 |
| CC/C(=C(/c1ccc(OCCNC/C=C/C(=O)N(C)CC)cc1)c1ccc2[nH]ncc2c1)c1ccccc1 [Compound 16, (E)-4-((2-(4-((E)-1-(1H-indazol-5-yl)-2-phenylbut-1-en-1-yl)phenoxy)ethyl)amino)-N-ethyl-N-methylbut-2-enamide] | 0.00166 | 0.0219 |
| CCCN(C)C(=O)/C=C/CNCCOc1ccc(/C(=C(/CC)c2ccccc2)c2ccc3[nH]ncc3c2)cc1 [Compound 17, (E)-4-((2-(4-((E)-1-(1H-indazol-5-yl)-2-phenylbut-1-en-1-yl)phenoxy)ethyl)amino)-N-methyl-N-propylbut-2-enamide] | 0.00218 | 0.0252 |
| CC/C(=C(/c1ccc(OCCNC/C=C/C(=O)N(C)CCO)cc1)c1ccc2[nH]ncc2c1)c1ccccc1 [Compound 18, (E)-4-((2-(4-((E)-1-(1H-indazol-5-yl)-2-phenylbut-1-en-1-yl)phenoxy)ethyl)amino)-N-(2-hydroxyethyl)-N-methylbut-2-enamide] | 0.00163 ± 0.00141 | 0.0214 ± 0.015 |
| CC/C(=C(/c1ccc(OCCNC/C=C/C(=O)N(C)C)cc1)c1ccc2[nH]nc(F)c2c1)c1ccc(F)cc1Cl [Compound 19, (E)-4-((2-(4-((E)-2-(2-chloro-4-fluorophenyl)-1-(3-fluoro-1H-indazol-5-yl)but-1-en-1-yl)phenoxy)ethyl)amino)-N,N-dimethylbut-2-enamide] | 0.00158 | 0.0186 |
| CC/C(=C(/c1ccc(OCCNC/C(C)=C/C(=O)N(C)C)cc1)c1ccc2[nH]ncc2c1)c1ccccc1 [Compound 21, (E)-4-((2-(4-((E)-1-(1H-indazol-5-yl)-2-phenylbut-1-en-1-yl)phenoxy)ethyl)amino)-N,N,3-trimethylbut-2-enamide] | 0.0266 ± 0.0218 | 0.154 ± 0.0517 |
| CC/C(=C(/c1ccc(OCCNC/C=C\C(=O)N(C)C)cc1)c1ccc2[nH]ncc2c1)c1ccccc1 [Compound 22, (Z)-4-((2-(4-((E)-1-(1H-indazol-5-yl)-2-phenylbut-1-en-1-yl)phenoxy)ethyl)amino)-N,N-dimethylbut-2-enamide] | 0.00242 ± 0.00195 | 0.0216 ± 0.00026 |
